Data from US12409174B2, “Combination of zibotentan and dapagliflozin for the treatment of endothelin related diseases” (priority 2020, dated 2025).

Legend:
[1] = Zibotentan blood concentrations, Experiment 1; assay type: in vivo, male Wistar rats; conditions: male, Wistar, rat, whole blood, oral, Exp 1; for concentration at 4 h: 4 hr post first dose
Method: (§1) In the first experiment (Experiment 1), the effect of zibotentan on haematocrit (Hct) concentration was determined when zibotentan was administered peroral (p.o) QD for 14 days. […] Animals were weighed daily prior to dosing throughout the experiment. Blood samples (20 μL) for bioanalysis were taken at 4 and 24 hr after the first dose via the tail vein from conscious animals and 24 hr after the last dose via retroorbital route from anesthetized animals. Blood samples were collected via tail vein (100 μL) for Hct concentration and haemoglobin (Hb) measurements, on day 7 and on day 14, 1-2 hr after dosing. Twenty-four hour urine was collected for the measurement of urinary glucose, urine volume and electrolytes between doses nine and ten. Animals were terminated 24 hr after the last dose. On the day of termination, animals were anesthetized using 5% isoflurane, and blood was collected via the retroorbital route (in heparin-coated microvette, Sarsted) and centrifuged at 3,500 rpm at 4° C. for 10 minutes, plasma was collected and stored at −80° C. degrees prior to analysis. Animals were then euthanized by the removal of the heart. Both the heart and the kidneys were extracted and weighed. From the right kidney, a 4 mm thick slice of tissue was collected and fixed in 4% formaldehyde for subsequent histological analysis and a piece of cortical kidney tissue and heart tissue was collected for gene expression analysis.
A volume of 20 μL whole blood was precipitated with 150 μL acetonitrile containing internal standard and quickly vortexed, followed by a 20 min centrifugation at 3220 g and 4° C. […] Zibotentan samples were further diluted twice and three times at a 1:10 ratio with 33% acetonitrile, to ensure all diluted samples were detectible within the calibration range.
Sample concentrations were determined against matrix-spiked calibration standards over a range of 0.010 μM-10.0 μM for dapagliflozin and 0.75 μM-376 μM for zibotentan, applying weighted linear regression (1/X^2) using Waters TargetLynx software version XS V4.2 SCN986. […] Analytical bias was <15% over the concentration range for both analytes.
Separation was achieved using the following elution gradient: 0 min to 1.5 min, 4% B ramping up to 95% B; 1.5 min to 2.3 min, kept at 95% B; 2.3 min to 2.4 min, 95% B to 4% B and kept at 4% B until 2.7 min. The flow rate was 0.7 mL/min.

[2] = Effect of zibotentan on body weight, Experiment 1; assay type: in vivo, male Wistar rats; conditions: Exp 1; for Body weight, Difference in means vs Vehicle: log scale, linear mixed effects model
Method: as §1
(§2) Significance was set at p<0.05.

[3] = system: male Wistar rats on 4% salt diet; test: Effect of zibotentan on Hb, Experiment 1; assay type: in vivo; conditions: Exp 1
Method: as §1
For Hct and Hb analysis, 100 μl of blood from rat's tail vein was collected and measured using CG8 cartridges analysed with an iSTAT instrument (Abbott Point of Care Inc, Abbot Park, IL, USA).
as §2

[4] = system: male Wistar rats on 4% salt diet; test: Effect of zibotentan on plasma Na, K, glucose and urea, Experiment 1; assay type: in vivo; conditions: Exp 1
Method: as §1
(§3) Plasma and Urine Albumin, Creatinine, Glucose, Urea, Potassium and Sodium levels were analyzed using an ABX Pentra 400 instrument (Horiba Medical, Irvine, California, USA) according to the manufacturers protocol.
as §2

[5] = system: male Wistar rats on 4% salt diet; test: Effect of zibotentan on urinary volume and Na, K, urea, creatinine, glucose in the urine, Experiment 1; assay type: in vivo; conditions: Exp 1; for Urine Creatine / Urine Glucose / Urine K / Urine Na / Urine Urea / Urine volume: 24 hr urine between doses nine and ten
Method: as §1, §3, §2

[6] = treatment of prostate cancer; development stopped in 2011; cited from earlier work

Compound: COc1nc(C)cnc1NS(=O)(=O)c1cccnc1-c1ccc(-c2nnco2)cc1 [Zibo, N-(3-methoxy-5-methylpyrazin-2-yl)-2-[4-(1,3,4-oxadiazol-2-yl)phenyl]pyridine-3-sulfonamide]
- concentration at 24 h ([1]; 30 mg/kg, Zibo 30 mg/kg p.o. QD 14 days, 24 hr post last dose): 7.39 ± 10.4 µM
- concentration at 4 h ([1]; 30 mg/kg, Zibo 30 mg/kg p.o. QD): 53.8 ± 17.4 µM
- concentration at 24 h ([1]; 30 mg/kg, Zibo 30 mg/kg p.o. QD, 24 hr post first dose): 4.68 ± 3.93 µM
- concentration at 24 h ([1]; 100 mg/kg, Zibo 100 mg/kg p.o. QD 14 days, 24 hr post last dose): 39 ± 32.4 µM
- concentration at 4 h ([1]; 100 mg/kg, Zibo 100 mg/kg p.o. QD): 134 ± 43.8 µM
- concentration at 24 h ([1]; 100 mg/kg, Zibo 100 mg/kg p.o. QD, 24 hr post first dose): 39.1 ± 38.1 µM
- concentration at 24 h ([1]; 300 mg/kg, Zibo 300 mg/kg p.o. QD 14 days, 24 hr post last dose): 249 ± 193 µM
- concentration at 4 h ([1]; 300 mg/kg, Zibo 300 mg/kg p.o. QD): 247 ± 46 µM
- concentration at 24 h ([1]; 300 mg/kg, Zibo 300 mg/kg p.o. QD, 24 hr post first dose): 176 ± 108 µM
- Body weight, Difference in means vs Vehicle ([2]; Zibo 30 mg/kg p.o. QD 14 days): 0.02
- Body weight, Difference in means vs Vehicle ([2]; Zibo 100 mg/kg p.o. QD 14 days): 0.02
- Body weight, Difference in means vs Vehicle ([2]; Zibo 300 mg/kg p.o. QD 14 days): 0.01
- Body weight change compared to vehicle ([2]; zibotentan 30, 100 and 300 mg/kg): no difference
- Day 7 Hb ([3]; Zibo 30 mg/kg p.o. QD): 146.4 g/L
- Day 14 Hb ([3]; Zibo 30 mg/kg p.o. QD): 156.8 g/L
- Day 7 Hb ([3]; Zibo 100 mg/kg p.o. QD): 141.5 g/L
- Day 14 Hb ([3]; Zibo 100 mg/kg p.o. QD): 148.5 g/L
- Day 7 Hb ([3]; Zibo 300 mg/kg p.o. QD): 143.2 g/L
- Day 14 Hb ([3]; Zibo 300 mg/kg p.o. QD): 150.3 g/L
- Hb compared to vehicle ([3]; zibotentan 30, 100 and 300 mg/kg, day 7): significant decrease
- Hb compared to vehicle ([3]; zibotentan 100 and 300 mg/kg, day 14): significant decrease
- Plasma Glucose ([4]; Zibo 30 mg/kg p.o. QD 14 days): 9.76 ± 0.28 mmol/L
- Plasma K ([4]; Zibo 30 mg/kg p.o. QD 14 days): 4.50 ± 0.06 mmol/L
- Plasma Na ([4]; Zibo 30 mg/kg p.o. QD 14 days): 137.0 ± 0.96 mmol/L
- Plasma Urea ([4]; Zibo 30 mg/kg p.o. QD 14 days): 4.64 ± 0.20 mmol/L
- Plasma Glucose ([4]; Zibo 100 mg/kg p.o. QD 14 days): 9.65 ± 0.30 mmol/L
- Plasma K ([4]; Zibo 100 mg/kg p.o. QD 14 days): 4.52 ± 0.06 mmol/L
- Plasma Na ([4]; Zibo 100 mg/kg p.o. QD 14 days): 137.2 ± 0.97 mmol/L
- Plasma Urea ([4]; Zibo 100 mg/kg p.o. QD 14 days): 4.77 ± 0.25 mmol/L
- Plasma Glucose ([4]; Zibo 300 mg/kg p.o. QD 14 days): 9.34 ± 0.13 mmol/L
- Plasma K ([4]; Zibo 300 mg/kg p.o. QD 14 days): 4.76 ± 0.09 mmol/L
- Plasma Na ([4]; Zibo 300 mg/kg p.o. QD 14 days): 139.4 ± 0.86 mmol/L
- Plasma Urea ([4]; Zibo 300 mg/kg p.o. QD 14 days): 4.94 ± 0.39 mmol/L
- Level of Na, K, glucose and urea in the plasma compared to vehicle ([4]; different doses of zibotentan): no change
- Urine Creatine ([5]; Zibo 30 mg/kg p.o. QD): 88.8 ± 3.3 µmol
- Urine Glucose ([5]; Zibo 30 mg/kg p.o. QD): 0.01 ± 0.0 mmol
- Urine K ([5]; Zibo 30 mg/kg p.o. QD): 1.57 ± 0.05 mmol
- Urine Na ([5]; Zibo 30 mg/kg p.o. QD): 14.05 ± 0.95 mmol
- Urine Urea ([5]; Zibo 30 mg/kg p.o. QD): 6.19 ± 1.71 mmol
- Urine volume ([5]; Zibo 30 mg/kg p.o. QD): 28.19 ± 2.99 mL
- Urine Creatine ([5]; Zibo 100 mg/kg p.o. QD): 82.8 ± 2.5 µmol
- Urine Glucose ([5]; Zibo 100 mg/kg p.o. QD): 0.02 ± 0.0 mmol
- Urine K ([5]; Zibo 100 mg/kg p.o. QD): 1.52 ± 0.06 mmol
- Urine Na ([5]; Zibo 100 mg/kg p.o. QD): 13.01 ± 1.07 mmol
- Urine Urea ([5]; Zibo 100 mg/kg p.o. QD): 4.04 ± 0.39 mmol
- Urine volume ([5]; Zibo 100 mg/kg p.o. QD): 23.88 ± 2.02 mL
- Urine Creatine ([5]; Zibo 300 mg/kg p.o. QD): 82.9 ± 3.3 µmol
- Urine Glucose ([5]; Zibo 300 mg/kg p.o. QD): 0.18 ± 0.1 mmol
- Urine K ([5]; Zibo 300 mg/kg p.o. QD): 1.44 ± 0.03 mmol
- Urine Na ([5]; Zibo 300 mg/kg p.o. QD): 13.76 ± 0.76 mmol
- Urine Urea ([5]; Zibo 300 mg/kg p.o. QD): 4.60 ± 0.19 mmol
- Urine volume ([5]; Zibo 300 mg/kg p.o. QD): 29.09 ± 2.74 mL
- Level of urinary volume, Na, K, urea, creatinine and glucose compared to vehicle ([5]; different doses of zibotentan): no change
- Efficacy in Phase 3 [6]: insufficient efficacy
